Experiments:
[1] = Cmax in Sprague-Dawley rat at 5 mg/kg, po administered as single dose by LC-MS/MS analysis; format: ADME, organism-based; parameters: dose 5 mg/kg, route oral; conditions: in vivo
[2] = AUC (0 to 24 hrs) in Sprague-Dawley rat at 5 mg/kg, po administered as single dose by LC-MS/MS analysis; format: ADME, organism-based; parameters: time < 24 hr, dose 5 mg/kg, route oral; conditions: in vivo
[3] = Oral bioavailability in Sprague-Dawley rat at 5 mg/kg administered as single dose by LC-MS/MS analysis; format: ADME, organism-based; conditions: Sprague-Dawley, in vivo
[4] = target: ALK tyrosine kinase receptor (Homo sapiens) (UniProt Q9UM73); test: Inhibition of recombinant N-terminal GST-tagged human ALK cytoplasmic domain (1058 to 1620 residues) expressed in baculovirus expression system at 0.1 uM by TR-FRET assay relative to control
[5] = target: Tyrosine-protein kinase receptor UFO (Homo sapiens) (UniProt P30530); test: Inhibition of recombinant human N-terminal GST tagged AXL (473-end residues) expressed in baculovirus infected Sf9 cells at 0.1 uM by Z'-Lyte assay relative to control
[6] = target: Casein kinase II subunit alpha (Homo sapiens) (UniProt P68400); test: Inhibition of recombinant full length human His-tagged CK2alpha1 expressed in baculovirus expression system at 0.1 uM by Z'-Lyte assay relative to control
Casein kinase II subunit alpha (Homo sapiens), sequence (P68400 whole entry, looked up): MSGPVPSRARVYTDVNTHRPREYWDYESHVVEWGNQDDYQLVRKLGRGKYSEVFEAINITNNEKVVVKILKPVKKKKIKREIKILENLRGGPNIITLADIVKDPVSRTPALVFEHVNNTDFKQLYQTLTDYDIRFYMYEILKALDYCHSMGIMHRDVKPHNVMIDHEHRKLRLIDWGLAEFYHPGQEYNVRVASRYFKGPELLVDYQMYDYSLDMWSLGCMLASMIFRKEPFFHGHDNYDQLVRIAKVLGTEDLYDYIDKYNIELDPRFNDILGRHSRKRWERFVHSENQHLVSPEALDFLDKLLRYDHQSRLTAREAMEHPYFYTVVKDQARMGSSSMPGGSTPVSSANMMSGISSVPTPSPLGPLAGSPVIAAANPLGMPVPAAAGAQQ

[7] = target: Mitogen-activated protein kinase 14 (Homo sapiens) (UniProt Q16539); test: Inhibition of recombinant human full length GST-tagged p38alpha expressed in Escherichia coli at 0.1 uM by Z'-Lyte assay relative to control
[8] = target: Phosphatidylinositol 4,5-bisphosphate 3-kinase catalytic subunit beta isoform (Homo sapiens) (UniProt P42338); test: Inhibition of PI3K beta (unknown origin) at 0.1 uM by ADP-Glo assay relative to control
[9] = target: Phosphatidylinositol 4,5-bisphosphate 3-kinase catalytic subunit gamma isoform (Homo sapiens) (UniProt P48736); test: Inhibition of PI3K gamma (unknown origin) at 0.1 uM by ADP-Glo assay relative to control
Phosphatidylinositol 4,5-bisphosphate 3-kinase catalytic subunit gamma isoform (Homo sapiens), sequence (P48736 whole entry, looked up, canonical isoform): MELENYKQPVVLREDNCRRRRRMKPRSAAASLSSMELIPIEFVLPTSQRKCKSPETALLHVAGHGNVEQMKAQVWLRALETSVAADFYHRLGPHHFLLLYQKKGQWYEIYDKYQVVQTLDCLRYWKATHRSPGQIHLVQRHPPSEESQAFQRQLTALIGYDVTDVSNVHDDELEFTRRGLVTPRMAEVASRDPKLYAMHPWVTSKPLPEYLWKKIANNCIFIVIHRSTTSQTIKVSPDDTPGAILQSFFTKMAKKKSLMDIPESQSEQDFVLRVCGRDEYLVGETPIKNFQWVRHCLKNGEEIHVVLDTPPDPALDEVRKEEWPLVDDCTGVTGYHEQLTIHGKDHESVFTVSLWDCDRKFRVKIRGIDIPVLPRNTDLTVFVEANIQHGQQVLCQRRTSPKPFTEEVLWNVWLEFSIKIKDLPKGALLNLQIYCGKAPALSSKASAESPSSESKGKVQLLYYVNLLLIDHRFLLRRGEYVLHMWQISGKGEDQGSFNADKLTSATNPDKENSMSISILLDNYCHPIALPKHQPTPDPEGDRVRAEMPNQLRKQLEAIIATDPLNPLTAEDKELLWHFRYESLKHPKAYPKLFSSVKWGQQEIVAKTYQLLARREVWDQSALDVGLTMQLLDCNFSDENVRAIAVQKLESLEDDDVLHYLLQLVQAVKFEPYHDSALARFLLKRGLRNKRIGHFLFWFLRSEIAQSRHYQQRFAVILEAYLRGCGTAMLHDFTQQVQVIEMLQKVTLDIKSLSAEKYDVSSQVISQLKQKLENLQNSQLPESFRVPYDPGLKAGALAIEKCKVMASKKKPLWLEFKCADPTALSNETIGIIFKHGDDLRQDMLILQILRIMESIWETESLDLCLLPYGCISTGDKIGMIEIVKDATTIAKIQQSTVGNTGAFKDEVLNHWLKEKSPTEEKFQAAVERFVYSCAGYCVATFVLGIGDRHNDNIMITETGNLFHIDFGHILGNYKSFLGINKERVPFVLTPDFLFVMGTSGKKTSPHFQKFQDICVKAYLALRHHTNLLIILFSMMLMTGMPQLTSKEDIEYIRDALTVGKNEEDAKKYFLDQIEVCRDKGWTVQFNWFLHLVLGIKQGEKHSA

[10] = target: RAF proto-oncogene serine/threonine-protein kinase (Homo sapiens) (UniProt P04049); test: Inhibition of RAF1 (unknown origin) at 0.1 uM by TR-FRET assay relative to control
RAF proto-oncogene serine/threonine-protein kinase (Homo sapiens), sequence (P04049 whole entry, the tested form may be a part): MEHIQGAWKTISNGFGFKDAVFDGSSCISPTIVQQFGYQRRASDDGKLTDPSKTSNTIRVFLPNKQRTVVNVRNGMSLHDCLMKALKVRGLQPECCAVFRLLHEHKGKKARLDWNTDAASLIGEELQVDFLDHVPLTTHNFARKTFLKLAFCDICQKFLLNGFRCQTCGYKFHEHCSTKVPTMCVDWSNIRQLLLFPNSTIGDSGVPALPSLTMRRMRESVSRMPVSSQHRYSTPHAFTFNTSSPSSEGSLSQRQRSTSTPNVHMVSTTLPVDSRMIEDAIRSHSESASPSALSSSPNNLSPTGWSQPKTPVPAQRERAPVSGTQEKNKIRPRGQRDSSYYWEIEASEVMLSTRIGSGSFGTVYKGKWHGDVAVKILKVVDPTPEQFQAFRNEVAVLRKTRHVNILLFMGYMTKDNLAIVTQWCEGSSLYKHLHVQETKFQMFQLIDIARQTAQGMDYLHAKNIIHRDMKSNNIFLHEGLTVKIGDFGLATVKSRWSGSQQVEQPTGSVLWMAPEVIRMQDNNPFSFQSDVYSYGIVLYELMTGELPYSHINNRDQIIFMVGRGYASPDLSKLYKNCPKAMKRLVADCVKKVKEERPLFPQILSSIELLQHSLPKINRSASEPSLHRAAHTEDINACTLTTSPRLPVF

[11] = target: High affinity nerve growth factor receptor (Homo sapiens) (UniProt P04629); test: Inhibition of recombinant human His-tagged TRKA cytoplasmic domain expressed in baculovirus expression system at 0.1 uM by Z'-Lyte assay relative to control
[12] = target: CDK6/cyclin D3 (Homo sapiens) (UniProt P30281+Q00534); test: Inhibition of recombinant full length human GST-tagged CDK6/Cyclin-D3 expressed in baculovirus expression system at 1 uM by TR-FRET assay relative to control
[13] = target: RAC-gamma serine/threonine-protein kinase (Homo sapiens) (UniProt Q9Y243); test: Inhibition of recombinant full length human His-tagged AKT3 expressed in baculovirus expression system at 1 uM by TR-FRET assay relative to control
[14] = target: Calcium/calmodulin-dependent protein kinase type II subunit beta (Homo sapiens) (UniProt Q13554); test: Inhibition of recombinant full length human His-tagged CAMK2B expressed in baculovirus expression system at 1 uM by Z'-Lyte assay relative to control
[15] = target: Serine/threonine-protein kinase Chk1 (Homo sapiens) (UniProt O14757); test: Inhibition of recombinant full length human His-tagged CHK1 expressed in baculovirus expression system at 1 uM by Z'-Lyte assay relative to control
[16] = target: Hepatocyte growth factor receptor (Homo sapiens) (UniProt P08581); test: Inhibition of recombinant human His-tagged c-Met cytoplasmic domain expressed in baculovirus expression system at 1 uM by Z'-Lyte assay relative to control
[17] = target: G protein-coupled receptor kinase 3 (Homo sapiens) (UniProt P35626); test: Inhibition of recombinant human full length GST-tagged GRK3 expressed in baculovirus expression system at 1 uM by Z'-Lyte assay relative to control
[18] = target: G protein-coupled receptor kinase 4 (Homo sapiens) (UniProt P32298); test: Inhibition of recombinant human full length GST-tagged GRK4 expressed in baculovirus expression system at 1 uM by Z'-Lyte assay relative to control
[19] = target: Insulin receptor (Homo sapiens) (UniProt P06213); test: Inhibition of recombinant human GST-tagged INSR cytoplasmic domain expressed in baculovirus expression system at 1 uM by Z'-Lyte assay relative to control
[20] = target: Tyrosine-protein kinase JAK2 (Homo sapiens) (UniProt O60674); test: Inhibition of recombinant human GST-tagged JAK2 expressed in baculovirus expression system at 1 uM by TR-FRET assay relative to control
Tyrosine-protein kinase JAK2 (Homo sapiens), sequence (O60674 whole entry): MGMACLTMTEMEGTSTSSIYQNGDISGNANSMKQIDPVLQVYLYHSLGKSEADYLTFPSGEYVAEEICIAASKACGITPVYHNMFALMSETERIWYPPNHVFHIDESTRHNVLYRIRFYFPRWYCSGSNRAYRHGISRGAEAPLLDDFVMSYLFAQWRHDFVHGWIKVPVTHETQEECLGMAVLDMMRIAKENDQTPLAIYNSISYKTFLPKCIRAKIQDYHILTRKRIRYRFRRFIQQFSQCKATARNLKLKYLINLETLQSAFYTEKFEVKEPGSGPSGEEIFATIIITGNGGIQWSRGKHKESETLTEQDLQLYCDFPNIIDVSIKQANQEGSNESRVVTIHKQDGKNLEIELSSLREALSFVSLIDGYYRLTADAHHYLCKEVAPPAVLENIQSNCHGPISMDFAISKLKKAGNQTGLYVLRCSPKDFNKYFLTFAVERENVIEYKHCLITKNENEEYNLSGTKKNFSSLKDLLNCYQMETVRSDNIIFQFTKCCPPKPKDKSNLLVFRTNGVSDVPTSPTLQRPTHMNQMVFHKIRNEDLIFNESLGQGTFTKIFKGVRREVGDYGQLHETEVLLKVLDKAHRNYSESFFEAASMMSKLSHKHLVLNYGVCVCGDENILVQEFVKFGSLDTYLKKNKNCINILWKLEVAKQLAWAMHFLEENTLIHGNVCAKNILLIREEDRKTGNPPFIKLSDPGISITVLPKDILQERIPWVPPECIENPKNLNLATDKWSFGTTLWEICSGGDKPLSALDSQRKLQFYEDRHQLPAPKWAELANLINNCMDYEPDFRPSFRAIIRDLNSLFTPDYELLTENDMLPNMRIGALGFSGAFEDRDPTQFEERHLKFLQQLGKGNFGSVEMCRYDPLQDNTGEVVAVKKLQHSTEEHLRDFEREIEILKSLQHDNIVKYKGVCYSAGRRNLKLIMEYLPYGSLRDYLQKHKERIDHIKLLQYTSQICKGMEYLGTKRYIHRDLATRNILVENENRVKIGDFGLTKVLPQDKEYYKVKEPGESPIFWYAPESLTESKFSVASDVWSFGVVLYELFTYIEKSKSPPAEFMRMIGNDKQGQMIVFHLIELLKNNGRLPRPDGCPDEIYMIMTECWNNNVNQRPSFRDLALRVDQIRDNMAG

[21] = target: Tyrosine-protein kinase Lck (Homo sapiens) (UniProt P06239); test: Inhibition of recombinant human full length His-tagged LCK expressed in baculovirus expression system at 1 uM by Z'-Lyte assay relative to control
Tyrosine-protein kinase Lck (Homo sapiens), sequence (P06239 2-509 limits assumed): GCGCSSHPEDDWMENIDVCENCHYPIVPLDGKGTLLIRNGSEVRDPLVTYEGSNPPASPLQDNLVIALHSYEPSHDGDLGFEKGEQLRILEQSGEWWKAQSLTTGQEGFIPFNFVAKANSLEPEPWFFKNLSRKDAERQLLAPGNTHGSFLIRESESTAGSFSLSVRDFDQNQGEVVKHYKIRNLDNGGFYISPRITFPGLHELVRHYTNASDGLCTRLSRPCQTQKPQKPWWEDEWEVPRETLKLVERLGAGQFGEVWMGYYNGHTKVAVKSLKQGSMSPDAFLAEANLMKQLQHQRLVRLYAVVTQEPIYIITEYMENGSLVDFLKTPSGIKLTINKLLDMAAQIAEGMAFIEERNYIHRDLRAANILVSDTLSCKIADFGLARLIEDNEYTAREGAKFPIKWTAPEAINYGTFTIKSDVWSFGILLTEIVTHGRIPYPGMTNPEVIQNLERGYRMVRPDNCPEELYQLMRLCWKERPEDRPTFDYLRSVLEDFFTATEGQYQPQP

[22] = target: Mitogen-activated protein kinase kinase kinase 9 (Homo sapiens) (UniProt P80192); test: Inhibition of recombinant human GST-tagged MLK1 expressed in baculovirus expression system at 1 uM by Z'-Lyte assay relative to control
[23] = target: Serine/threonine-protein kinase PAK 4 (Homo sapiens) (UniProt O96013); test: Inhibition of recombinant human GST-tagged PAK4 expressed in baculovirus expression system at 1 uM by Z'-Lyte assay relative to control
Serine/threonine-protein kinase PAK 4 (Homo sapiens), sequence (O96013 whole entry, looked up, canonical isoform): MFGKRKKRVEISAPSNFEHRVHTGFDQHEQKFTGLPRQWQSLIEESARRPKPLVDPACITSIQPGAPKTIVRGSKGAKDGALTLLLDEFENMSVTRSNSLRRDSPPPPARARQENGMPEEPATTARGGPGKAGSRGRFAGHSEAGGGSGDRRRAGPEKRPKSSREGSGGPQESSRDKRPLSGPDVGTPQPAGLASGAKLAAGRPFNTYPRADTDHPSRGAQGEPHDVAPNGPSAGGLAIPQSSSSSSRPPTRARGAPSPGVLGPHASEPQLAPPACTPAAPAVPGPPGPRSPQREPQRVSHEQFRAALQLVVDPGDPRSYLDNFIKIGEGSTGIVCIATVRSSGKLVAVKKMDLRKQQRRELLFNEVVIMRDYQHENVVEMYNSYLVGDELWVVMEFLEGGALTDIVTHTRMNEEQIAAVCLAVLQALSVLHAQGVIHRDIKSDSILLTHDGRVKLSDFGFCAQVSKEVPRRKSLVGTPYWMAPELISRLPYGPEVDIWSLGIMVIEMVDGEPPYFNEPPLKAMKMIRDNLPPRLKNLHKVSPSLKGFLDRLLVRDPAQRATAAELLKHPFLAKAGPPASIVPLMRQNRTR

[24] = target: Phosphatidylinositol 4,5-bisphosphate 3-kinase catalytic subunit gamma isoform (Homo sapiens) (UniProt P48736); test: Inhibition of PI3K gamma (unknown origin) at 1 uM by ADP-Glo assay relative to control
[25] = target: Serine/threonine-protein kinase PLK1 (Homo sapiens) (UniProt P53350); test: Inhibition of recombinant human full length His-tagged PLK1 expressed in baculovirus expression system at 1 uM by Z'-Lyte assay relative to control
Serine/threonine-protein kinase PLK1 (Homo sapiens), sequence (P53350 whole entry): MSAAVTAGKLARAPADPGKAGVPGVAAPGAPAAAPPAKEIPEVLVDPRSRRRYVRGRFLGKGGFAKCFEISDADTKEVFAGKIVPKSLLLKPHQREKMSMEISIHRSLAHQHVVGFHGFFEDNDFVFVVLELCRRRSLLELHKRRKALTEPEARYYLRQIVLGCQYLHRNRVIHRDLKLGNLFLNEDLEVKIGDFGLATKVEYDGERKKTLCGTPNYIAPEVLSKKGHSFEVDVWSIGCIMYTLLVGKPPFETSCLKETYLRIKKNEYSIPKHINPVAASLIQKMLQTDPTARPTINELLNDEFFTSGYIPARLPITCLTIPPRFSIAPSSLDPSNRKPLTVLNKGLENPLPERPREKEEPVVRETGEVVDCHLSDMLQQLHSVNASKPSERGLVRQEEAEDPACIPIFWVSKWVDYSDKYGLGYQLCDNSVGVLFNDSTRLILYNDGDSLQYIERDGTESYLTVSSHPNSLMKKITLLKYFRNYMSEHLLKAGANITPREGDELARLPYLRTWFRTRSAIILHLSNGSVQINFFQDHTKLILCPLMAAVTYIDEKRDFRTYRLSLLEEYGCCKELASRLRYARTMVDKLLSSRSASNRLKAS

[26] = Cmax in ICR mouse at 5 mg/kg, po administered as single dose by LC-MS/MS analysis; format: ADME, organism-based; parameters: dose 5 mg/kg, route oral; conditions: in vivo
[27] = AUC (0 to infinity) in ICR mouse at 2 mg/kg, iv administered as single dose by LC-MS/MS analysis; format: ADME, organism-based; parameters: dose 2 mg/kg, time infinity, route intravenous; conditions: in vivo
[28] = Half life in ICR mouse at 5 mg/kg, po administered as single dose by LC-MS/MS analysis; format: ADME, organism-based; conditions: in vivo
[29] = Oral bioavailability in ICR mouse at 5 mg/kg administered as single dose by LC-MS/MS analysis; format: ADME, organism-based; conditions: in vivo
[30] = Cmax in CD-1 mouse plasma at 10 mg/kg, po administered as single dose by LC-MS/MS analysis; format: ADME, organism-based; parameters: dose 10 mg/kg, route oral
[31] = Unbound Cmax in CD-1 mouse plasma at 10 mg/kg, po administered as single dose by LC-MS/MS analysis; format: ADME, organism-based; conditions: in vivo
[32] = Cmax in CD-1 mouse brain at 10 mg/kg, po administered as single dose by LC-MS/MS analysis; format: ADME, organism-based; parameters: dose 10 mg/kg, route oral
[33] = Fraction unbound in CD-1 mouse brain at 2 uM incubated for 4 hrs by LC/MS/MS analysis based equillibriun dialysis method; format: ADME, tissue-based
[34] = test system: Mitogen-activated protein kinase kinase kinase 7; test: Inhibition of TAK1 (unknown origin) at 1 uM by TR-FRET assay relative to control; conditions: Homo sapiens

## CC1=Nc2c(F)cc(-c3nc(Nc4ccc(C5CCN(C)CC5)cn4)ncc3F)cc2C12CCCC2 [CROZBACICLIB]
[1]
  Cmax: 134 ng/mL
[2]
  AUC(0-t) at 24 h: 1530 ng·h/mL
[3]
  bioavailability: 66%
[4]
  inhibition: 7%
[5]
  inhibition: -1%
[6]
  inhibition: 5%
[7]
  inhibition: 0%
[8]
  inhibition: 0%
[9]
  inhibition: -5%
[10]
  inhibition: -10%
[11]
  inhibition: 2%
[12]
  inhibition: 101%
[13]
  inhibition: 25%
[14]
  inhibition: 87%
[15]
  inhibition: 0%
[16]
  inhibition: 87%
[17]
  inhibition: -7%
[18]
  inhibition: 1%
[19]
  inhibition: 12%
[20]
  inhibition: 64%
[21]
  inhibition: 13%
[22]
  inhibition: 59%
[23]
  inhibition: 12%
[24]
  inhibition: 19%
[25]
  inhibition: 0%
[26]
  Cmax: 134 ng/mL
[27]
  AUC(0-inf): 1330 ng·h/mL
[28]
  half-life: 8.38 h
[29]
  bioavailability: 75%
[30]
  Cmax: 818 ng/mL
[31]
  fCmax: 5.73 ng/mL
[32]
  Cmax: 2580 ng/g
[33]
  Fu: 0.04%
[34]
  inhibition: 17%

From ChEMBL document CHEMBL4251601 (Eur J Med Chem, 2018)
